# Laboratory results as given in ChEMBL document CHEMBL1201862, “PubChem BioAssay data set” (2004).
#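 Briefly, cells in 96-well plates were exposed to five compound concentrations for 48 h, and endpoints were estimated by linear interpolation. Abbreviation: GI50, concentration required for 50% inhibition of growth.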 Calls of active or inactive are those of the source. Rule as the data show it: active = GI50 up to about 1.1 µM and inactive = higher.
# Experiments:
# Assay in all cases: NCI tumour cell line growth inhibition, 48 h
# [1] = system: SW-620
# [2] = system: U-251
# [3] = system: HL-60
# [4] = system: RPMI-8226
# [5] = system: OVCAR-3
# [6] = system: KM12
# [7] = system: SF-295
# [8] = system: IGROV-1
# [9] = system: SK-MEL-28
# [10] = system: SNB-75
# [11] = system: DMS-114
# [12] = system: LXFL 529
# [13] = system: HOP-92
# [14] = system: CCRF-CEM
# [15] = system: OVCAR-5
# [16] = system: M19-MEL
# [17] = system: CAKI-1
# [18] = system: RXF 393
# [19] = system: SF-268
# [20] = system: A498
# [21] = system: SR
# [22] = system: OVCAR-4
# [23] = system: DMS-273
# [24] = system: SK-OV-3
# [25] = system: ACHN
# [26] = system: TK-10
# [27] = system: Malme-3M
# [28] = system: A549
# [29] = system: NCI-H23
# [30] = system: LOX IMVI
# [31] = system: EKVX
# [32] = system: HOP-18
# [33] = system: UACC-62
# [34] = system: SNB-19
# [35] = system: COLO 205
# [36] = system: UACC-257
# [37] = system: HCC 2998
# [38] = system: SK-MEL-2
# [39] = system: NCI-H226
# [40] = system: DLD-1
# [41] = system: UO-31
# [42] = system: K562
# [43] = system: 786-0
# [44] = system: SNB-78
# [45] = system: HCT-116
# [46] = system: KM-20L2
# [47] = system: HT-29
# [48] = system: SK-MEL-5
# [49] = system: SF-539
# [50] = system: NCI-H460
# [51] = system: M14
# [52] = system: HOP-62
# [53] = system: MOLT-4
# [54] = system: SN12C
# [55] = system: HCT-15
# [56] = system: OVCAR-8
# [57] = system: MCF7
# [58] = system: Hs-578T
# [59] = system: NCI/ADR-RES
# [60] = system: PC-3
# [61] = system: BT-549
# [62] = system: NCI-H522
structure (smiles),measurement,setting,value
CC1(Cl)CC2OC3(Br)C=CC(C)(O)C2(CC1Br)C3(C)C (stereo not given),GI50,[1],> 100 µM (inactive)
same,GI50,[2],> 100 µM (inactive)
same,GI50,[3],51.1 µM (inactive)
same,GI50,[4],> 100 µM (inactive)
same,GI50,[5],> 100 µM (inactive)
same,GI50,[6],> 100 µM (inactive)
same,GI50,[7],> 100 µM (inactive)
same,GI50,[8],> 100 µM (inactive)
same,GI50,[9],> 100 µM (inactive)
same,GI50,[10],82.6 µM (inactive)
same,GI50,[11],> 100 µM (inactive)
same,GI50,[12],> 100 µM (inactive)
same,GI50,[13],50.9 µM (inactive)
same,GI50,[14],> 100 µM (inactive)
same,GI50,[15],> 100 µM (inactive)
same,GI50,[16],> 100 µM (inactive)
same,GI50,[17],> 100 µM (inactive)
same,GI50,[18],> 100 µM (inactive)
same,GI50,[19],> 100 µM (inactive)
same,GI50,[20],> 100 µM (inactive)
same,GI50,[21],23.6 µM (inactive)
same,GI50,[22],> 100 µM (inactive)
same,GI50,[23],> 100 µM (inactive)
same,GI50,[24],> 100 µM (inactive)
same,GI50,[25],> 100 µM (inactive)
same,GI50,[26],> 100 µM (inactive)
same,GI50,[27],> 100 µM (inactive)
same,GI50,[28],> 100 µM (inactive)
same,GI50,[29],> 100 µM (inactive)
same,GI50,[30],> 100 µM (inactive)
same,GI50,[31],> 100 µM (inactive)
same,GI50,[32],> 100 µM (inactive)
same,GI50,[33],> 100 µM (inactive)
same,GI50,[34],> 100 µM (inactive)
same,GI50,[35],> 100 µM (inactive)
same,GI50,[36],97.5 µM (inactive)
same,GI50,[37],> 100 µM (inactive)
same,GI50,[38],> 100 µM (inactive)
same,GI50,[39],> 100 µM (inactive)
same,GI50,[40],> 100 µM (inactive)
same,GI50,[41],> 100 µM (inactive)
same,GI50,[42],> 100 µM (inactive)
same,GI50,[43],> 100 µM (inactive)
same,GI50,[44],> 100 µM (inactive)
same,GI50,[45],> 100 µM (inactive)
same,GI50,[46],> 100 µM (inactive)
same,GI50,[47],> 100 µM (inactive)
same,GI50,[48],> 100 µM (inactive)
same,GI50,[49],> 100 µM (inactive)
same,GI50,[50],> 100 µM (inactive)
same,GI50,[51],> 100 µM (inactive)
same,GI50,[52],> 100 µM (inactive)
same,GI50,[53],> 100 µM (inactive)
same,GI50,[54],> 100 µM (inactive)
same,GI50,[55],> 100 µM
same,GI50,[56],> 100 µM (inactive)
COc1cc(CNc2ccc(SC)cc2)cc(OC)c1OC,GI50,[1],3.46 µM (inactive)
same,GI50,[3],2.55 µM (inactive)
same,GI50,[4],8.57 µM (inactive)
same,GI50,[5],3.68 µM (inactive)
same,GI50,[11],3.37 µM (inactive)
same,GI50,[57],3.36 µM (inactive)
same,GI50,[12],12.6 µM (inactive)
same,GI50,[14],6.65 µM (inactive)
same,GI50,[15],17.2 µM (inactive)
same,GI50,[58],11 µM (inactive)
same,GI50,[59],3.15 µM (inactive)
same,GI50,[20],13.6 µM (inactive)
same,GI50,[22],27 µM (inactive)
same,GI50,[23],4.48 µM (inactive)
same,GI50,[60],6.95 µM (inactive)
same,GI50,[27],7.29 µM (inactive)
same,GI50,[28],8.41 µM (inactive)
same,GI50,[30],5.75 µM (inactive)
same,GI50,[61],1.63 µM (inactive)
same,GI50,[31],27.1 µM (inactive)
same,GI50,[32],22.6 µM (inactive)
same,GI50,[35],3.47 µM (inactive)
same,GI50,[38],6.27 µM (inactive)
same,GI50,[41],10.9 µM (inactive)
same,GI50,[43],8.2 µM (inactive)
same,GI50,[44],53.8 µM (inactive)
same,GI50,[45],4.71 µM (inactive)
same,GI50,[46],4.31 µM (inactive)
same,GI50,[47],3.35 µM (inactive)
same,GI50,[50],4.38 µM (inactive)
same,GI50,[51],3.27 µM (inactive)
same,GI50,[53],5.6 µM (inactive)
same,GI50,[55],4.23 µM
same,GI50,[62],2.88 µM (inactive)
